Measured values reported in ChEMBL document CHEMBL5465560, “Selectivity Literature for EUbOPEN Chemogenomic Library” (2024).
Numbering of substitutions follows the chain as printed. One block for each compound: values may come before it.

Experiments:
[1] = tested on: T1, Receptor-type tyrosine-protein kinase FLT3 (Homo sapiens), P36888 [K663Q]; experiment: (§1) Selectivity interaction (KinomeScan (DiscoverX)) EUB0000311b FLT3; conditions: at 1 µM
T1 sequence (whole entry): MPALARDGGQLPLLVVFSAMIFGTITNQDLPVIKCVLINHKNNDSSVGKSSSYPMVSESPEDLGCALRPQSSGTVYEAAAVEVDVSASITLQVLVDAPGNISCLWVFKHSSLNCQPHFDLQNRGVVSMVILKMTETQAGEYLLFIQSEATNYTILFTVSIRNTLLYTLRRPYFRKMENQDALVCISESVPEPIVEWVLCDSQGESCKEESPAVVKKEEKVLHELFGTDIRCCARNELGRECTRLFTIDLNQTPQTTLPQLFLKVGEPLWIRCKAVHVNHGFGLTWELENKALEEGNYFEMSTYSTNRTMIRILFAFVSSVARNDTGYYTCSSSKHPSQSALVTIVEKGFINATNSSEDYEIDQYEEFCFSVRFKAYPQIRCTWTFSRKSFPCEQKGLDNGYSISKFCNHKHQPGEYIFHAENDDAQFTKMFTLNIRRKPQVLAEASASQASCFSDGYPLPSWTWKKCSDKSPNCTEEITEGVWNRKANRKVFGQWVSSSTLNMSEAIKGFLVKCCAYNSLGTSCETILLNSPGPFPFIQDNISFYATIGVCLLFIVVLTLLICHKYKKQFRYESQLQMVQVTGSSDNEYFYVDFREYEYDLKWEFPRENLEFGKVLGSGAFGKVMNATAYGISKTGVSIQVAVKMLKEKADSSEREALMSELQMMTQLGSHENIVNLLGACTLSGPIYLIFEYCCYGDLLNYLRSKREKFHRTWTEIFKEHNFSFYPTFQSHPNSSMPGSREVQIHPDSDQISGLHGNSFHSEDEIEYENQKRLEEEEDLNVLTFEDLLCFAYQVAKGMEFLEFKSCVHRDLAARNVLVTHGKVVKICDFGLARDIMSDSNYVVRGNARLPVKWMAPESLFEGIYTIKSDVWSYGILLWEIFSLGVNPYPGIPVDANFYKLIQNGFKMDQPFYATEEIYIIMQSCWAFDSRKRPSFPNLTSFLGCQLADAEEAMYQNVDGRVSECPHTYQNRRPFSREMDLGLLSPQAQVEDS

[2] = tested on: T2, Receptor-type tyrosine-protein kinase FLT3 (Homo sapiens), P36888 [D835H]; experiment: as §1; conditions: at 1 µM
T2 sequence (whole entry): T1 sequence (whole entry) with Q663K, D835H

[3] = target: T3, Serine/threonine-protein kinase 3 (Homo sapiens) (UniProt Q13188); experiment: Selectivity interaction (SelectScreen profiling (Invitrogen)) EUB0000607a STK3; conditions: at 2 µM
T3 sequence (whole entry): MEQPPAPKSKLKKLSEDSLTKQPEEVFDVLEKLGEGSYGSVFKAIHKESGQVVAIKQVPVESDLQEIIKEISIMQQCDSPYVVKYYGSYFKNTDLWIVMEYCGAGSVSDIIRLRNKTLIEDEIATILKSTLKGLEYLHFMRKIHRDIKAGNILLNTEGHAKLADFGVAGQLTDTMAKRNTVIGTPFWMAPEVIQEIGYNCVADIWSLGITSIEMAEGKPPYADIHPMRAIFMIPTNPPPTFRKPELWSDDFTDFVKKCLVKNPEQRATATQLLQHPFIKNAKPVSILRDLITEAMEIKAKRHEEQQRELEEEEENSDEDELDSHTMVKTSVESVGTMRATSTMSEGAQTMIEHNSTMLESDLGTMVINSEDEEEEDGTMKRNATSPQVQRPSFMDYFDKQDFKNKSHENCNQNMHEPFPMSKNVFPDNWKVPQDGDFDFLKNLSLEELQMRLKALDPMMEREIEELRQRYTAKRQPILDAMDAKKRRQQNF

[4] = target: Protein-tyrosine kinase 6 (Homo sapiens, UniProt Q13882); experiment: Selectivity interaction (Upstate Kinase Profiler service (Millipore)) EUB0000056c PTK6; conditions: at 1 µM
Chain of Protein-tyrosine kinase 6 (Q13882 whole entry, looked up): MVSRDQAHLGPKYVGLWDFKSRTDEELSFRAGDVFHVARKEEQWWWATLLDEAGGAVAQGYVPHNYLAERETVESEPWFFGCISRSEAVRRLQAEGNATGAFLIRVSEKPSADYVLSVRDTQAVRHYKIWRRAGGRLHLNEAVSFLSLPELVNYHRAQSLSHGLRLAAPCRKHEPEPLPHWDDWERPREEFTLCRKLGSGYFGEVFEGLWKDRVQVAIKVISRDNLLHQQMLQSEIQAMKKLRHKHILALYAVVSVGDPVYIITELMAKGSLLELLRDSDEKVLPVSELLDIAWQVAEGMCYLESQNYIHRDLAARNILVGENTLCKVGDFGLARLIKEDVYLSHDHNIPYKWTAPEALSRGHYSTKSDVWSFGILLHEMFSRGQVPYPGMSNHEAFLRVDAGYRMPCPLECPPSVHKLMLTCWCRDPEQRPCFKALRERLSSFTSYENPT

[5] = target: Tyrosine-protein kinase ABL1 (Homo sapiens, UniProt P00519); experiment: Selectivity interaction (ActivX KiNativ screen (kinase selectivity in THP-1 cell lysates)) EUB0000639a ABL1; assay type: subcellular; conditions: lysate
Chain of Tyrosine-protein kinase ABL1 (P00519 whole entry): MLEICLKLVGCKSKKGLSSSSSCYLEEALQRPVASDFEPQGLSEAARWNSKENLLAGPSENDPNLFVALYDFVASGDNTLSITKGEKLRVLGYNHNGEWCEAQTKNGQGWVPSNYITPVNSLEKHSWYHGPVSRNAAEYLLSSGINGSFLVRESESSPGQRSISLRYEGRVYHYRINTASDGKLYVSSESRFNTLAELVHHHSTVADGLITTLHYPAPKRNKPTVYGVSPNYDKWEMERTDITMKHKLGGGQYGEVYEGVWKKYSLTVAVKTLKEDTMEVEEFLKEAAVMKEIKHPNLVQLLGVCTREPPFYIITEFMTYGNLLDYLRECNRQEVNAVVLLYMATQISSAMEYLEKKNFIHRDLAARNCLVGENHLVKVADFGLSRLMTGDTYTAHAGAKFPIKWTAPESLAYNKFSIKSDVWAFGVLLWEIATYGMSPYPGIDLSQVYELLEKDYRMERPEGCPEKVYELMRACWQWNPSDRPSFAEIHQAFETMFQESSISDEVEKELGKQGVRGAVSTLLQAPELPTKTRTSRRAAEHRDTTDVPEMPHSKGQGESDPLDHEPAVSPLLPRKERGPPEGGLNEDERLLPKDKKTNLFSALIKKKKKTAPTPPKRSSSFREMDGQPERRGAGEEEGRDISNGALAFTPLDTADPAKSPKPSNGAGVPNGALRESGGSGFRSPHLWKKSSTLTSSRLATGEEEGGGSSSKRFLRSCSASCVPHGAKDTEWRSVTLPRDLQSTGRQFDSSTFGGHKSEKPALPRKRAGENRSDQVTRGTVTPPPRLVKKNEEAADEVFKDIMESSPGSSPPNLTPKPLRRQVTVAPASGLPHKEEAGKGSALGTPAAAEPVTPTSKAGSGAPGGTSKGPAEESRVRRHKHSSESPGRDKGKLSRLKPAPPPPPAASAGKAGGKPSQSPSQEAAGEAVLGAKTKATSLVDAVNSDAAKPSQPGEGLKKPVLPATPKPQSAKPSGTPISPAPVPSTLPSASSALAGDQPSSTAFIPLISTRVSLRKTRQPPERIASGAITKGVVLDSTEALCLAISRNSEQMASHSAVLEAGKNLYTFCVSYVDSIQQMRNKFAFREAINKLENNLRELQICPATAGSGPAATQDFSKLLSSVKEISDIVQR

[6] = target: Receptor tyrosine-protein kinase erbB-4 (Homo sapiens, UniProt Q15303); experiment: Selectivity interaction (KinomeScan (DiscoverX)) EUB0000092b ERBB4; conditions: at 10 µM
Chain of Receptor tyrosine-protein kinase erbB-4 (Q15303 whole entry): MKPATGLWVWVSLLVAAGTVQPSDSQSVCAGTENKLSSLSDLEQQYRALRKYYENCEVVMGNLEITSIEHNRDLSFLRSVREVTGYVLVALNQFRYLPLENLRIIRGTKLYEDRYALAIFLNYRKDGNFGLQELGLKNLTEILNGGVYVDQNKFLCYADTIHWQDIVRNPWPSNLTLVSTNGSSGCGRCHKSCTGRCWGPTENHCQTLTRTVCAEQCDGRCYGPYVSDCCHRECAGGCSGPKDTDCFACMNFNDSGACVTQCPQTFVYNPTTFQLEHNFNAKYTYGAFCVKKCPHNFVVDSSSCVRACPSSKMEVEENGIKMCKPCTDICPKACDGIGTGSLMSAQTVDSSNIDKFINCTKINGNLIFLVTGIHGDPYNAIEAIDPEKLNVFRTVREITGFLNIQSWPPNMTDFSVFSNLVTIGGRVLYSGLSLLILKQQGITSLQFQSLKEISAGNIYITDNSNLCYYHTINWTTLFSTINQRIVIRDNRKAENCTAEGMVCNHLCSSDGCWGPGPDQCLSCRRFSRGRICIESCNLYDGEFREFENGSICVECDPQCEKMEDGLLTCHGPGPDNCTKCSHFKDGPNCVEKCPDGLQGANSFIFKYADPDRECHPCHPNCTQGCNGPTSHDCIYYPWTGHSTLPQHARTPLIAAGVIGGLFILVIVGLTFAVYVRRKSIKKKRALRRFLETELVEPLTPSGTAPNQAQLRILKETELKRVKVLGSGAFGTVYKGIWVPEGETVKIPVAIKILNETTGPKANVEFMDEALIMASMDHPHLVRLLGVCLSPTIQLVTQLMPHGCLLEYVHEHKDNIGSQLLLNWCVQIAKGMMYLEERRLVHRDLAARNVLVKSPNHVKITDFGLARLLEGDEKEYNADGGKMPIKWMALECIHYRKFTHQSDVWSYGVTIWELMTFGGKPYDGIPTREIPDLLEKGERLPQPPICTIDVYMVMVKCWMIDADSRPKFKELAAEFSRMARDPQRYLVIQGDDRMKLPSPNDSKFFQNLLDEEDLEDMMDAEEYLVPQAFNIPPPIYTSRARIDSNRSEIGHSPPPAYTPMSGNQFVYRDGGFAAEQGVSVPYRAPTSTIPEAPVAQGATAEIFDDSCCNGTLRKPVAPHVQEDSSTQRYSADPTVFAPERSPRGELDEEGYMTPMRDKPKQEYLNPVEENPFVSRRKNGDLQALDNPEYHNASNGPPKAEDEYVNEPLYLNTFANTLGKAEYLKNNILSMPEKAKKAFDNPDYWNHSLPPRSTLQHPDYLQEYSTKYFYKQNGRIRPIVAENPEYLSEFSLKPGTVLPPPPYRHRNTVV

% of control [1]: 13%
% of control [2]: 16%
SMILES: CCc1ccccc1C(=O)Nc1n[nH]c2c(C)c(F)c(C3C(C#N)=C(C)N(C)C(C)=C3C#N)cc12 [BAY-3827]

SMILES: CNC(=O)Nc1ccc(-c2nc(N3CC4CCC(C3)O4)c3cnn(C4CCC5(CC4)OCCO5)c3n2)cc1
% of inhibition [3]: 0%

% of inhibition [4]: 0%
SMILES: Cc1ccc(-c2ccc3c(ccc4sc5c(c43)NC[C@@H](C)NC5=O)n2)cn1

% of inhibition ([5]; at 0.01 µM): 12.8%
% of inhibition ([5]; at 0.04 µM): -16%
% of inhibition ([5]; at 0.2 µM): -25.4%
% of inhibition ([5]; at 1 µM): -5.3%
% of inhibition ([5]; at 5 µM): -19.6%
SMILES: CC[C@@H]1[C@H](F)C(=O)N[C@@H]1COc1nccc2cc(C(N)=O)c(OC)cc12 [ZIMLOVISERTIB]

SMILES: CCC(=O)N1CCN(c2ccc(-n3c(=O)ccc4cnc5ccc(-c6cnc7ccccc7c6)cc5c43)cc2C(F)(F)F)CC1
% of control [6]: 100%
